Reference: US20120202690A1, “HERBICIDAL COMPOUNDS” (SYNGENTA LIMITED, priority 2009, published 2012)

Key:
Assay type in all cases: in vivo
Setaria faberi (SETFA) [1] = test: Pre-emergence biological efficacy, glasshouse, 1000 g/ha, evaluated after 13 days (100=total damage to plant; 0=no damage to plant); conditions: Setaria faberi, 312 h, read-out: Percentage damage caused to weed species, pre-emergence, SETFA; for pest or weed control at 1000 g/ha: rate 1,000 g/ha
Outline: (§1)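 Seeds were sown in standard soil in pots, then grown in a controlled glasshouse at 24/16° C. day/night, 14 hours light and 65% humidity, with watering twice daily.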

Solanum nigrum (SOLNI) [2] = test: as above; conditions: Solanum nigrum, 312 h, read-out: Percentage damage caused to weed species, pre-emergence, SOLNI; for pest or weed control at 1000 g/ha: rate 1,000 g/ha
Outline: as §1

[3] = test system: Ipomoea hederaceae (IPOHE); test: as above; conditions: Ipomoea, 312 h, read-out: Percentage damage caused to weed species, pre-emergence, IPOHE; for pest or weed control at 1000 g/ha: rate 1,000 g/ha
Outline: as §1

[4] = test system: Echinochloa crus-galli (ECHCG); test: as above; conditions: Echinochloa crus-galli, 312 h, read-out: Percentage damage caused to weed species, pre-emergence, ECHCG; for pest or weed control at 1000 g/ha: rate 1,000 g/ha
Outline: as §1

[5] = test system: Amaranthus retroflexus (AMARE); test: as above; conditions: Amaranthus retroflexus, 312 h, read-out: Percentage damage caused to weed species, pre-emergence, AMARE; for pest or weed control at 1000 g/ha: rate 1,000 g/ha
Outline: as §1

[6] = test system: Alopecurus myosuroides (ALOMY); test: as above; conditions: Alopecurus myosuroides, 312 h, read-out: Percentage damage caused to weed species, pre-emergence, ALOMY; for pest or weed control at 1000 g/ha: rate 1,000 g/ha
Outline: as §1

Setaria faberi (SETFA) [7] = test: Post-emergence biological efficacy, glasshouse, 500 or 1000 g/ha, evaluated after 13 days (100=total damage to plant; 0=no damage to plant); conditions: Setaria faberi, 312 h, read-out: Percentage damage caused to weed species, post-emergence, SETFA; for pest or weed control at 1000 g/ha: rate 1,000 g/ha
Outline: (§2)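 Plants raised from seed in pots of standard soil receive the spray after emergence. They then grow on under controlled glasshouse conditions (24/16° C. day/night, 14 hours light, 65% humidity) and are watered twice a day.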

[8] = test system: Echinochloa crusgaffi (ECHCG); test: as above; conditions: Echinochloa, 312 h, read-out: Percentage damage caused to weed species, post-emergence, ECHCG; for pest or weed control at 1000 g/ha: rate 1,000 g/ha
Outline: as §2

Solanum nigrum (SOLNI) [9] = test: as above; conditions: Solanum nigrum, 312 h, read-out: Percentage damage caused to weed species, post-emergence, SOLNI; for pest or weed control at 1000 g/ha: rate 1,000 g/ha
Outline: as §2

[10] = test system: Ipomoea hederaceae (IPOHE); test: as above; conditions: Ipomoea, 312 h, read-out: Percentage damage caused to weed species, post-emergence, IPOHE; for pest or weed control at 1000 g/ha: rate 1,000 g/ha
Outline: as §2

[11] = test system: Amaranthus retroflexus (AMARE); test: as above; conditions: Amaranthus retroflexus, 312 h, read-out: Percentage damage caused to weed species, post-emergence, AMARE; for pest or weed control at 1000 g/ha: rate 1,000 g/ha
Outline: as §2

[12] = test system: Alopecurus myosuroides (ALOMY); test: as above; conditions: Alopecurus myosuroides, 312 h, read-out: Percentage damage caused to weed species, post-emergence, ALOMY; for pest or weed control at 1000 g/ha: rate 1,000 g/ha
Outline: as §2

Row | Structure (SMILES) | pest or weed control at 1000 g/ha (Setaria faberi (SETFA) [1]) [%] | pest or weed control at 1000 g/ha (Solanum nigrum (SOLNI) [2]) [%] | pest or weed control at 1000 g/ha [3] [%] | pest or weed control at 1000 g/ha [4] [%] | pest or weed control at 1000 g/ha [5] [%] | pest or weed control at 1000 g/ha [6] [%] | pest or weed control at 1000 g/ha (Setaria faberi (SETFA) [7]) [%] | pest or weed control at 1000 g/ha [8] [%] | pest or weed control at 1000 g/ha (Solanum nigrum (SOLNI) [9]) [%] | pest or weed control at 1000 g/ha [10] [%] | pest or weed control at 1000 g/ha [11] [%] | pest or weed control at 1000 g/ha [12] [%] | also measured
1 | CCOCCOC(=O)c1nc(-c2ccc(Cl)c(OC)c2F)cc2[nH]cc(C)c12 [Compound 22-82, 6-(4-Chloro-2-fluoro-3-methoxyphenyl)-4-[(2-ethoxy)-ethoxycarbonyl]-3-methyl-1H-pyrrolo[3,2-c]pyridine] | 0 | 90 | 90 | 20 | 70 | 10 | 40 | 20 | 90 | 40 | 80 | 20 | –
2 | COC(=O)c1nc(Cl)nc2[nH]c(C)cc12 [Compound 1-126, 2-Chloro-4-methoxy-carbonyl-6-methyl-7H-pyrrolo[2,3-d]pyrimidine] | 0 | 0 | 0 | 0 | 0 | 0 | 0 | 0 | 0 | 0 | 0 | 0 | –
3 | Cc1cc2c(C(=O)O)nc(-c3ccc(Cl)c(F)c3)nc2n1Cc1ccccc1 [Compound 6-21, 4-Carboxy-2-(4-chloro-3-fluorophenyl)-6-methyl-7-phenylmethyl-7H-pyrrolo[2,3-d]pyrimidine] | – | – | – | – | – | – | – | – | – | – | – | – | pest or weed control at 250 g/ha (Setaria faberi (SETFA) [1]; rate 250 g/ha): 0%; pest or weed control at 250 g/ha (Solanum nigrum (SOLNI) [2]; rate 250 g/ha): 0%; pest or weed control at 250 g/ha ([3]; rate 250 g/ha): 0%; pest or weed control at 250 g/ha ([4]; rate 250 g/ha): 0%; pest or weed control at 250 g/ha ([5]; rate 250 g/ha): 0%; pest or weed control at 250 g/ha ([6]; rate 250 g/ha): 0%; pest or weed control at 250 g/ha (Setaria faberi (SETFA) [7]; rate 250 g/ha): 0%; pest or weed control at 250 g/ha ([8]; rate 250 g/ha): 0%; pest or weed control at 250 g/ha (Solanum nigrum (SOLNI) [9]; rate 250 g/ha): 10%; pest or weed control at 250 g/ha ([10]; rate 250 g/ha): 10%; pest or weed control at 250 g/ha ([11]; rate 250 g/ha): 0%; pest or weed control at 250 g/ha ([12]; rate 250 g/ha): 10%
4 | COC(=O)c1nc(-c2ccc(Cl)c(OC)c2F)nc2c1cc(C)n2CC1CC1 [Compound 5-66, 2-(4-Chloro-2-fluoro-3-methoxyphenyl)-7-cyclopropylmethyl-4-methoxycarbonyl-6-methyl-7H-pyrrolo[2,3-d]pyrimidine] | 0 | 0 | 0 | 0 | 0 | 0 | 20 | 10 | 20 | 0 | 0 | 10 | –
5 | COC(=O)c1nc(-c2ccc(Cl)c(OC)c2F)cc2c1c(C)cn2C(=O)OC [Compound 38-64, 6-(4-Chloro-2-fluoro-3-methoxyphenyl)-1,4-di(methoxycarbonyl)-3-methyl-1H-pyrrolo[3,2-c]pyridine] | 0 | 0 | 0 | 0 | 0 | 0 | 10 | 0 | 10 | 20 | 0 | 10 | –
6 | COC(=O)c1nc(Cl)cc2[nH]ccc12 [Compound 22-122, 6-chloro-4-methoxycarbonyl-1H-pyrrolo[3,2-c]pyridine] | 0 | 0 | 0 | 0 | 0 | 0 | 0 | 0 | 20 | 10 | 60 | 0 | –
7 | COC(=O)c1nc(C2CC2)nc2c1cc(C)n2Cc1ccccc1[N+](=O)[O-] [Compound 8-6, 2-Cyclopropyl-4-methoxycarbonyl-6-methyl-7-(2-nitrophenyl-methyl)-7H-pyrrolo[2,3-d]pyrimidine] | 0 | 0 | 0 | 0 | 0 | 0 | 0 | 0 | 20 | 50 | 20 | 0 | –
8 | C=CCOC(=O)c1nc(-c2ccc(Cl)c(OC)c2F)nc2[nH]cc(C)c12 [Compound 1-80, 2-(4-Chloro-2-fluoro-3-methoxyphenyl)-5-methyl-4-(prop-2-enyloxycarbonyl)-7H-pyrrolo[2,3-d]pyrimidine] | 0 | 0 | 0 | 0 | 0 | 0 | 0 | 10 | 80 | 40 | 60 | 0 | –
9 | COC(=O)c1nc(-c2ccc(Cl)c(OC)c2F)cc2[nH]cc(C)c12 [Compound 22-64, 6-(4-chloro-2-fluoro-3-methoxyphenyl)-4-methoxycarbonyl-3-methyl-1H-pyrrolo[3,2-c]pyridine] | 20 | 80 | 60 | 70 | 90 | 10 | 70 | 80 | 90 | 70 | 100 | 50 | –
10 | COc1c(Cl)ccc(-c2nc(C(=O)O)c3cc(C)n(Cc4ccccc4)c3n2)c1F [Compound 6-65, 4-Carboxy-2-(4-chloro-2-fluoro-3-methoxyphenyl)-6-methyl-7-phenylmethyl-7H-pyrrolo[2,3-d]pyrimidine] | 0 | 0 | 0 | 0 | 0 | 0 | 0 | 0 | 80 | 40 | 20 | 0 | –
